Consider five molecules from PMC6054532, “Dynamics of human protein kinase Aurora A linked to drug selectivity” (eLife, 2018).

Changes are numbered by the printed parent chain.

One series deals with Aurora B. The following applies: ref Howard et al., 2009; cited from earlier work.
In series [1] the target is T1, Biotinylated T288V Aurora A (Homo sapiens, UniProt O14965, T288V).
T1 construct: made in house
T1 sequence (O14965 122-403 T288V): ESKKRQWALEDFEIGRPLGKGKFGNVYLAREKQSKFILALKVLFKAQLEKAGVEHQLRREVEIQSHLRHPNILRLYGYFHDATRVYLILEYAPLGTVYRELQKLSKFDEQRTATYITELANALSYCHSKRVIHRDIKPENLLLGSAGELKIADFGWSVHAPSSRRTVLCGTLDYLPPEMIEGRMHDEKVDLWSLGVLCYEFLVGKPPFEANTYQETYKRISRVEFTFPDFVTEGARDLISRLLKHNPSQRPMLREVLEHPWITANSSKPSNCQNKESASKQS
Put plainly: Creoptix WAVE waveguide interferometry (double jump, slow-off, macroscopic KD). As to conditions: 25°C; complex formed after 1 hour of incubation. The series is classed as binding. The protocol: All chemicals were purchased from GE Healthcare, unless otherwise stated. The protocols in the WAVE control software for conditioning of the chip, immobilization of proteins and performing kinetics experiments were followed. In short, the polycarboxylate chip (PCH) was activated by injection of a 1:1 mixture with final concentrations of 200 mM N-ethyl-N’-(3-dimethylaminopropyl)carbodiimide (EDC) and 50 mM N-hydroxysuccinimide (NHS), followed by streptavidin immobilization (50 μg/mL in 10 mM sodium acetate pH 5.0). Unreacted sites on the chip were blocked with 1 M ethanolamine pH 8.0. For all activation, immobilization and passivation steps 0.2x HBS-EP was used as running buffer with a flowrate of 10 μL/min and an injection duration of 420 s on both channels 1 and 2.
All experiments were run in 50 mM HEPES, 50 mM NaCl, 20 mM MgCl2, 5 mM TCEP, 0.03 mg/mL BSA, 0.005% Tween-20, pH 7.30 as running buffer.

Series [2] addresses T2, Aurora A (Homo sapiens, UniProt O14965).
T2 construct: made in house; host or cells: E. coli BL21(DE3)
T2 sequence (O14965 122-403): T1 sequence (O14965 122-403 T288V) with V167T
In words: Global fit of binding and dissociation kinetics (KinTek Explorer) and constants calculated from microscopic rate constants. The following applies: for weakening of overall affinity by the DFG-in and -out equilibrium: DFG-out binders. The protocol:
(§1) The rapid kinetics were studied using a stopped-flow spectrophotometer (SX20 series from Applied Photophysics Ltd). The flow system was made anaerobic by rinsing with degassed buffer comprised of 50 mM HEPES, 50 mM NaCl, 20 mM MgCl2, 5 mM TCEP, 5% DMSO, pH 7.30 to minimize photobleaching. The stock solutions of Aurora A and all drugs were made anaerobic by degassing with ThermoVac (MicroCal) at the desired temperature. In general, a solution of 5 μM Aurora A was loaded in one syringe and quickly mixed with drug, prepared in the same buffer, in the other syringe (mixing ratio 1:10). […] For each drug concentration, at least five replicate measurements were made and these transients were averaged. Analysis was performed by fitting the individual trace to exponential equations using Pro-Data Viewer (Applied Photophysics Ltd) or with Kinesyst 3 software (TgK Scientific) and error bars denote the standard errors as obtained from the fit. KaleidaGraph version 4.5.3 (Synergy) was used for data analysis and plotting.

Series [3] deals with T3, dephosphorylated Aurora A (Homo sapiens, UniProt O14965).
T3 construct: made in house; host or cells: E. coli BL21(DE3)
T3 sequence (O14965 122-403): T1 sequence (O14965 122-403 T288V) with V167T
In words: Stopped-flow intrinsic tryptophan fluorescence drug binding kinetics. How it is done:
as §1
The approximate values of k1 and k−1 obtained from fitting to this equation are used as starting values for the global fit.

The test system of another series is Aurora C. Also noted: method as in Carpinelli et al., 2007; Fraedrich et al., 2012. As to conditions: ref Carpinelli et al., 2007; Fraedrich et al., 2012; cited from earlier work.
The target of series [4] is T2, Aurora A. In words: mant-ATP binding kinetics by stopped-flow FRET from Trp, with global fit. The following applies: 10°C. How it is done: Inhibitor binding followed by an induced-fit step:(3) Eout+ I⇌koffkonEout⋅I⇌k−3k3Eout∗⋅I K2K3KD=K2∗K3/(K3+1)
FRET using intrinsic tryptophan fluorescence is used to monitor mant-ATP (obtained from Jena Bioscience) binding kinetics to Aurora A at 10°C. In the binding experiment or kon , increasing concentration of mant-ATP were quickly mixed to 0.5 µM Aurora A (ratio 1:10, excitation at 295 nm, emission cut-off at 395 nm). In the experiment to measure the release of mant-ATP or koff , 10 µM/10 µM Aurora A/mant-ATP complex was diluted with buffer (ratio 1:10). A significant decrease in the fluorescence intensity of Aurora A (excitation at 295 nm, emission cut-off at 395 nm) can be seen due to the mant-ATP release.

Series [5] concerns the molecule itself. In words: crystal structure; co-crystallised: 240 μM deP Aurora A 122-403 + 1.0 mM AT9283 + 250 μM Mb; sitting drop, 18°C, 0.1 M Bis-Tris pH 5.5, 0.2 M magnesium chloride, 19% (w/v) PEG-3350.

For `O=C(Nc1c[nH]nc1-c1nc2ccc(CN3CCOCC3)cc2[nH]1)NC1CC1` [AT9283], the IC50 with Aurora B is 0.003 µM. In series [1], the “slow dissociation, double exponential, fast phase (kobs1 slow-off)” value is “(1.1 ± 0.02) × 10^−2 s^−1” and the “slow dissociation, double exponential, slow phase (kobs2 slow-off)” value is reported as “(0.1 ± 0.01) × 10^−2 s^−1”.

For `CO[C@@H](C(=O)N1Cc2n[nH]c(NC(=O)c3ccc(N4CCN(C)CC4)cc3)c2C1)c1ccccc1` [Danusertib], the “weakening of overall affinity by the DFG-in and -out equilibrium” value on Aurora A [2] is 1.6 fold. In addition, on Aurora A [2] (induced-fit step), the “tighter binding resulting from the conformational change after drug binding” value was “four orders of magnitude”. Further, in series [3] (25°C), the “k-2 (intercept of kobs,Binding plot)” value came to 4.6 ± 3 s⁻¹ and the “kobs of slow phase, plateau (induced-fit step, k3+k-3)” value is “approximately 16 ± 2 s^−1”. Also, the 50% inhibitory concentration (IC50) with Aurora C is 0.061 µM.

For the molecule `Cc1ccc(NC(=O)c2ccc(CN3CCN(C)CC3)cc2)cc1Nc1nccc(-c2cccnc2)n1` [Gleevec], on Aurora A [2], the “weakening of overall affinity by the DFG-in and -out equilibrium” value was 1.6 fold. In series [3] (10°C), the “k2, bimolecular rate constant (slope of kobs,Binding vs concentration, fast phase)” value came out at 1.1e+06 ± 300000 M⁻¹ s⁻¹ and the “k-2, dissociation from intercept of binding plot (kdiss)” value was 31 ± 2 s⁻¹.

For mant-ATP, on Aurora A [4], the “k2 (plot of kobs vs concentration, fast phase)” value was 800000 ± 200000 M⁻¹ s⁻¹; the “k-2 (plot of kobs vs concentration, fast phase)” value is 50 ± 8 s⁻¹; the “kobs of slow phase, plateau (k3+k-3)” value is given as “around 21 ± 1 s^−1”.

B1: dephosphorylated Aurora A (122-403) (domain or fragment, human, UniProt O14965 122-403, looked up)
chain: T1 sequence (O14965 122-403 T288V) with V167T
notes: human Ser/Thr kinase Aurora A, residues 122-403, dephosphorylated (confirmed by mass spectrometry); E. coli BL21(DE3) is named only for the isotope-labelled samples; also called deP Aurora A^122-403; AurA; source: expressed and purified as described before (Zorba et al., 2014)
On to B1, for which the binding result in series [5] is listed as “binds”.
